Data reported in patent publication US20090312411A1, “PREVENTING OR REDUCING RISK OF MISCARRIAGES” (New York Society for the Raptured and Crippled Maintaining …, priority 2008, published 2009).

Assays:
[1] = test system: murine model of antiphospholipid syndrome (APS); assay: Fetal resorption in murine model of APS (aPL-treated pregnant mice); format: in vivo; conditions: uterus from a mouse treated with aPL+simvastatin, day 15, FIG. 3
Procedure: Protocol. […] The stock solution was diluted to the appropriate concentration in sterile PBS.
Protocol. Pregnant C57BL/6 mice were treated with IgG (10 mg i.p.) from a healthy non-autoimmune individual (NH-IgG), or different patients with APS (aPL-IgG) on days 8 and 12 of pregnancy. Mice were sacrificed on day 15 of pregnancy, uteri were dissected, fetuses were weighed, and frequency of fetal resorption calculated (number of resorptions/number of fetuses+number of resorptions).
Protocol. Pregnant mice were treated with pravastatin (0.2 μg/g bw=5 μg/mouse, i.p 18 hours prior to aPL or NHIgG injections on days 8 and 12). Pravastatin (Sigma Chemical, St Louis, Mo.) was dissolved in EtOH at a concentration of 10 mg/mL and diluted with NaCl 0.9% in a ratio of 1:1000 to yield a final concentration of 10 μg pravastatin per 1 mL carrier. The NaCl 0.9%-based carrier solution for the placebo group was prepared accordingly to include EtOH only (i.e., without pravastatin) at a concentration of 1:1000.

neutrophils [2] = assay: Respiratory burst activity (ROS) in neutrophils, DHR flow cytometry; format: in vivo, mouse
Procedure: Respiratory burst activity in neutrophils. Intracellular reactive oxygen (ROS) production was assessed with dihydrorhodamine 123 (DHR, Sigma Chemical, St Louis, Mo.) by flow cytometry. This primarily non-fluorescent dye becomes fluorescent upon oxidation to rhodamine by ROS produced during the respiratory burst. DHR (10 μmol/L) was added to heparanized whole blood, and this mixture was incubated at 37° C. for 45 min. Red cells were lysed as described above and reactive-oxygen production was analyzed by […] in FL1.

TF [3] = assay: TF on peripheral blood neutrophils, two-color FACS; format: in vivo, mouse; conditions: flow cytometry
Procedure: (§1) Protocol. To study the presence of TF on peripheral blood neutrophils, two-color FACS analysis was performed. For this purpose heparinized whole mouse blood was stained with FITC-labeled anti-mouse Ly-6G (Gr-1) for FL1 (BD Biosciences Pharmingen, CA) to identify neutrophils and biotinylated rat anti-mTF antibody 1H1 and streptavidin-PerCP (BD Biosciences Pharmingen, CA) as the FL3 fluorochrome. Red cells were lyzed with ACK buffer. Preparations were then incubated with SA-PerCP and analyzed by FACS using a FACscan (BD Biosciences, CA).

neutrophils [4] = assay: Phagocytosis assay, latex beads, flow cytometry; format: in vivo, mouse
Procedure: Phagocytosis assay. Heparanized whole blood was incubated (1 h, 37° C., 5% CO2) with 1 μm of fluorescent yellow-green latex beads (Sigma-Aldrich) (ratio phagocyte/target 1:25) that had been preopsonized with normal mouse serum for 1 h. Internalization of beads was determined by flow cytometry using a FACSCalibur (BD Biosciences) flow cytometer.

PAR-2 = PAR-2 on peripheral blood neutrophils, two-color FACS; format: in vivo, mouse
Procedure: as §1, with “Protocol. […] expression on mouse neutrophils.” for “Protocol.”, “PAR-2” for “TF”, “anti-PAR-2” for “rat anti-mTF”, “(Santa Cruz Biotechnology, Inc, Santa Cruz, Calif.)” for “1H1”

SM9-1 trophoblast cells [5] = assay: SM9-1 trophoblast superoxide production by DHE; format: cell-based, mouse; conditions: SM9-1 cells incubated with sFlt-1 or monocyte supernatants, 72 hours; VEGF 500 pg/ml; pravastatin 5 μg/ml 3 hours prior
Procedure: (§2) Protocol. SM9-1 trophoblast cells, derived from a gestational day 9 Swiss-Webster mouse placenta (SM9-1) (Bowen et al., Biol Reprod 60:428-434.), were incubated with the supernatants from monocytes incubated with C5a containing high levels of sFlt-1 (Girardi et al., 2006, J Exp Med 203:2165-2175). Some SM9-1 cells were incubated in the presence of increasing amounts of mouse sFlt-1 (R&D Systems) (1000, 2000, 4000 and 8000 pg/ml). After 72 hours, cell proliferation was evaluated by light microscopy. Some SM9-1 cells were incubated with pravastatin (5 μg/ml) for 3 hours prior to incubation with sFlt-1. Mouse VEGF (500 pg/ml) (R&D systems) was added to some SM9-1 incubated with sFlt-1 or monocytes supernatants. Immunohistochemical identification of TF with 1H1 and superoxide production by DHE was performed on the SM9-1 cells after 72 hours of culture.
(§3) Protocol. SM9-1 trophoblast cells were prepared as described in Example 21. Isolated SM9-1 cells were incubated in the presence of increasing amounts of mouse sFlt-1 (R&D Systems) (1000, 2000, 4000 and 8000 pg/ml). After 72 hours, cell proliferation was evaluated by light microscopy. SM9-1 cells were also incubated with pravastatin (5 μg/ml) for 3 hours prior to incubation with sFlt-1. Immunohistochemical identification of TF with 1H1 and superoxide production by DHE was performed on the SM9-1 cells after 72 hours of culture as described above.

TF [6] = assay: SM9-1 trophoblast TF immunohistochemistry with 1H1; format: cell-based, mouse; conditions: SM9-1 cells incubated with sFlt-1 or monocyte supernatants, 72 hours; VEGF 500 pg/ml; pravastatin 5 μg/ml 3 hours prior
Procedure: as §2, §3

SM9-1 trophoblast cells [7] = assay: SM9-1 trophoblast cell proliferation, light microscopy; format: cell-based, mouse; conditions: SM9-1 cells incubated with sFlt-1 or monocyte supernatants, 72 hours; VEGF 500 pg/ml; pravastatin 5 μg/ml 3 hours prior
Procedure: as §2, §3

monocytes = assay: sFlt-1 release by monocytes in vitro (ELISA); format: cell-based, mouse; conditions: 10 nM C5a for 4 h; pravastatin 5 μg/ml for 3 hours prior to C5a
Procedure: Protocol. Mice with a selective deletion of the TF gene in myeloid cells (TF^floxed/floxed/LysM-Cre mice) (Redecha et al., supra), were used for isolation of monocytes to study sVEGFR-1 production in vitro. Blockade of TF was carried out as in Example 17 by i.p. injections of anti-mTF antibody 1H1.
Protocol. Splenocytes were prepared from non pregnant CBA/J female mice and incubated for 4 h in culture medium supplemented with 10% inactivated fetal bovine serum (FBS). Non adherent cells were removed and adherent cells (>95% peroxidase-positive) were incubated in culture medium with the addition of 10 nM mouse recombinant C5a. A group of adherent monocytes was treated for 3 hours with pravastatin (5 μg/ml) prior to incubation with C5a. After 4 h of incubation with C5a, culture supernatants were collected and analyzed for sVEGFR-1 by ELISA (R&D Systems).

CCC(C)(C)C(=O)O[C@H]1C[C@@H](C)C=C2C=C[C@H](C)[C@H](CC[C@@H]3C[C@@H](O)CC(=O)O3)[C@H]21 [Simvastatin, simvastatin]
viable fetuses in uterus [1]: 7
ROS (neutrophils [2]; aPL + Simvastatin): 10.4 ± 5.4 % of positive cells
ROS (neutrophils [2]; treatment given alone): 10.4 ± 4.5 % of positive cells
TF (TF [3]; aPL + Simvastatin): 10 ± 5.7 % of positive cells
TF (TF [3]; treatment given alone): 6.6 ± 2.2 % of positive cells
Phagocytosis (neutrophils [4]; aPL + Simvastatin): 16.2 ± 2.9 % of positive cells
Phagocytosis (neutrophils [4]; treatment given alone): 18.7 ± 1.0 % of positive cells
PAR-2 (number of PAR-2 positive cells) (PAR-2; aPL + simvastatin): 7.4 ± 3.9
PAR-2 (number of PAR-2 positive cells) (PAR-2; treatment given alone): 6.9 ± 2.3

VEGF
superoxide production / oxidative damage (DHE) (SM9-1 trophoblast cells [5]): prevented oxidative damage
TF staining / expression (TF [6]): prevented TF expression
cell proliferation / cell growth (SM9-1 trophoblast cells [7]): restored cell proliferation

B1: sFlt-1: soluble form of the VEGF-1 receptor, antiangiogenic molecule that sequesters VEGF (R&D Systems) (protein)
chain: YGSGSKLKVPELSLKGTQHVMQAGQTLFLKCRGEAAHSWSLPTTVSQEDKRLSITPPSACGRDNRQFCSTLTLDTAQANHTGLYTCRYLPTSTSKKKKAESSIYIFVSDAGSPFIEMHTDIPKLVHMTEGRQLIIPCRVTSPNVTVTLKKFPFDTLTPDGQRITWDSRRGFIIANATYKEIGLLNCEATVNGHLYQTNYLTHRQTNTILDVQIRPPSPVRLLHGQTLVLNCTATTELNTRVQMSWNYPGKATKRASIRQRIDRSHSHNNVFHSVLKINNVESRDKGLYTCRVKSGSSFQSFNTSVHVYEKGFISVKHRKQPVQETTAGRRSYRLSMKVKAFPSPEIVWLKDGSPATLKSARYLVHGYSLIIKDVTTEDAGDYTILLGIKQSRLFKNLTATLIVNVKPQIYEKSVSSLPSPPLYPLGSRQVLTCTVYGIPRPTITWLWHPCHHNHSKERYDFCTENEESFILDPSSNLGNRIESISQRMTVIEGTNKTVSTLVVADSQTPGIYSCRAFNKIGTVERNIKFYVTDVPNGFHVSLEKMPAEGEDLKLSCVVNKFLYRDITWILLRTVNNRTMHHSISKQKMATTQDYSITLNLVIKNVSLEDSGTYACRARNIYTGEDILRKTEVLVRDSEAPHLLQNLSDYEVSISGSTTLDCQARGVPAPQITWFKNNHKIQQEPGIILGPGNSTLFIERVTEEDEGVYRCRATNQKGAVESAAYLTVQGTSDKSNLE
superoxide production / oxidative damage (DHE) (SM9-1 trophoblast cells [5]): increased superoxide production
TF staining / expression (TF [6]): Increased TF staining
cell proliferation / cell growth (SM9-1 trophoblast cells [7]): diminished cell proliferation

B2: C5a: mouse recombinant C5a, complement component used to stimulate monocytes (protein, UniProt P06684 679-755, looked up)
C5a anaphylatoxin: NLHLLRQKIEEQAAKYKHSVPKKCCYDGARVNFYETCEERVARVTIGPLCIRAFNECCTIANKIRKESPHKPVQLGR
modifications: C5a anaphylatoxin
notes: mouse recombinant C5a, complement component used to stimulate monocytes
sFlt-1 released by monocytes (monocytes): 6749 ± 1927 pg/mL
